The values below are quoted from earlier work in patent publication US20090062907A1, “Self-expanding valve for the venous system” (priority 2007, published 2009).

In the case of `C[C@H](CCC(=O)O)[C@H]1CC[C@H]2[C@@H]3CC[C@@H]4C[C@H](O)CC[C@]4(C)[C@H]3C[C@H](O)[C@]12C` [Deoxycholic acid], for the setting “alcohol”, the solubility in alcohol result is on record as “soluble”. Also, under “water”, the solubility in water result was “sparingly soluble”.
